Laboratory results: patent publication US8952024B2, “Herbicidal pyrimidone derivatives” (E I du Pont de Nemours and Company, priority 2009, dated 2015)
Like-named read-outs stand apart in the source and are kept apart here.

Experiments:
Experiment in all cases: Test A pre-/postemergence plant response
Type in all cases: in vivo
[1] = test system: large crabgrass (Digitaria sanguinalis); details: for pest or weed control at 125 g/ha / pest or weed control at 500 g/ha: Digitaria sanguinalis, 240 h
Summary of the method: (§1)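 Injury was scored visually after roughly ten days against untreated controls, 0 = no effect, 100 = complete control. Test chemicals in a surfactant-containing non-phytotoxic solvent were sprayed either onto soil preemergence or onto one- to two-leaf, 2–10 cm plants postemergence.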

[2] = test system: morningglory (Ipomoea spp.); details: for pest or weed control at 125 g/ha / pest or weed control at 500 g/ha: Ipomoea, 240 h
Summary of the method: as §1

[3] = test system: velvetleaf (Abutilon theophrasti); details: for pest or weed control at 125 g/ha / pest or weed control at 500 g/ha: Abutilon theophrasti, 240 h
Summary of the method: as §1

[4] = test system: wheat (Triticum aestivum); details: for plant injury at 125 g/ha / plant injury at 500 g/ha: Triticum aestivum, 240 h
Summary of the method: as §1

[5] = Postemergence, 125 g ai/ha, visual injury, 0 to 100 scale (0 no effect, 100 complete control), approx. ten days
[6] = Postemergence, 500 g ai/ha, 0 to 100 scale, 0 = no effect, 100 = complete control, approx. ten days
[7] = Preemergence, 125 g ai/ha, 0 to 100 scale, 0 = no effect, 100 = complete control
[8] = Preemergence, 500 g ai/ha, visual injury, 0 to 100 scale (0 no effect, 100 complete control), approx. ten days
[9] = post-emergence, Postemergence, 125 g ai/ha, visual injury, 0 to 100 scale (0 no effect, 100 complete control), approx. ten days, read-out: Crabgrass, Large plant response rating
[10] = post-emergence, Postemergence, 500 g ai/ha, 0 to 100 scale, 0 = no effect, 100 = complete control, approx. ten days, read-out: Plant response rating, Crabgrass, Large
[11] = pre-emergence, Preemergence, 125 g ai/ha, 0 to 100 scale, 0 = no effect, 100 = complete control, read-out: Plant response rating, Crabgrass, Large
[12] = pre-emergence, Preemergence, 500 g ai/ha, visual injury, 0 to 100 scale (0 no effect, 100 complete control), approx. ten days, read-out: Plant response rating, Crabgrass, Large
[13] = post-emergence, Postemergence, 125 g ai/ha, visual injury, 0 to 100 scale (0 no effect, 100 complete control), approx. ten days, read-out: Morningglory plant response rating
[14] = post-emergence, Postemergence, 500 g ai/ha, 0 to 100 scale, 0 = no effect, 100 = complete control, approx. ten days, read-out: Plant response rating, Morningglory
[15] = pre-emergence, Preemergence, 125 g ai/ha, 0 to 100 scale, 0 = no effect, 100 = complete control, read-out: Plant response rating, Morningglory
[16] = pre-emergence, Preemergence, 500 g ai/ha, visual injury, 0 to 100 scale (0 no effect, 100 complete control), approx. ten days, read-out: Plant response rating, Morningglory
[17] = post-emergence, Postemergence, 125 g ai/ha, visual injury, 0 to 100 scale (0 no effect, 100 complete control), approx. ten days, read-out: Velvetleaf plant response rating
[18] = post-emergence, Postemergence, 500 g ai/ha, 0 to 100 scale, 0 = no effect, 100 = complete control, approx. ten days, read-out: Plant response rating, Velvetleaf
[19] = pre-emergence, Preemergence, 125 g ai/ha, 0 to 100 scale, 0 = no effect, 100 = complete control, read-out: Plant response rating, Velvetleaf
[20] = pre-emergence, Preemergence, 500 g ai/ha, visual injury, 0 to 100 scale (0 no effect, 100 complete control), approx. ten days, read-out: Plant response rating, Velvetleaf
[21] = post-emergence, Postemergence, 125 g ai/ha, visual injury, 0 to 100 scale (0 no effect, 100 complete control), approx. ten days, read-out: Wheat plant response rating
[22] = post-emergence, Postemergence, 500 g ai/ha, 0 to 100 scale, 0 = no effect, 100 = complete control, approx. ten days, read-out: Plant response rating, Wheat
[23] = pre-emergence, Preemergence, 125 g ai/ha, 0 to 100 scale, 0 = no effect, 100 = complete control, read-out: Plant response rating, Wheat
[24] = pre-emergence, Preemergence, 500 g ai/ha, visual injury, 0 to 100 scale (0 no effect, 100 complete control), approx. ten days, read-out: Plant response rating, Wheat

Compound	pest or weed control at 125 g/ha [1, 9] [%]	pest or weed control at 500 g/ha [1, 10] [%]	pest or weed control at 125 g/ha [1, 11] [%]	pest or weed control at 500 g/ha [1, 12] [%]	pest or weed control at 125 g/ha [2, 13] [%]	pest or weed control at 500 g/ha [2, 14] [%]	pest or weed control at 125 g/ha [2, 15] [%]	pest or weed control at 500 g/ha [2, 16] [%]	pest or weed control at 125 g/ha [3, 17] [%]	pest or weed control at 500 g/ha [3, 18] [%]	pest or weed control at 125 g/ha [3, 19] [%]	pest or weed control at 500 g/ha [3, 20] [%]	plant injury at 125 g/ha [4, 21] [%]	plant injury at 500 g/ha [4, 22] [%]	plant injury at 125 g/ha [4, 23] [%]	plant injury at 500 g/ha [4, 24] [%]	further results
COc1cccc(-n2c(-c3ccccc3)ncc(C(=O)C3=C(O)CCCC3=O)c2=O)c1 [Compound 19]																	Crabgrass, Large plant response rating [1, 5]: 0; Plant response rating, Crabgrass, Large [1, 6]: 20; Plant response rating, Crabgrass, Large [1, 7]: 20; Plant response rating, Crabgrass, Large [1, 8]: 80; Morningglory plant response rating [2, 5]: 0; Plant response rating, Morningglory [2, 6]: 60; Plant response rating, Morningglory [2, 7]: 0; Plant response rating, Morningglory [2, 8]: 50; Velvetleaf plant response rating [3, 5]: 100; Plant response rating, Velvetleaf [3, 6]: 100; Plant response rating, Velvetleaf [3, 7]: 50; Plant response rating, Velvetleaf [3, 8]: 100; Wheat plant response rating [4, 5]: 0; Plant response rating, Wheat [4, 6]: 0; Plant response rating, Wheat [4, 7]: 0; Plant response rating, Wheat [4, 8]: 0
CCn1ncc(C(=O)c2cnc(-c3ccccc3)n(Cc3ccccc3)c2=O)c1O [Compound 20, 5-[(1-ethyl-5-hydroxy-1H-pyrazol-4-yl)carbonyl]-2-phenyl-3-(phenylmethyl)-4(3H)-pyrimidinone]	0	10	0	30	0	10	0	0	20	70	0	50	0	0	0	0	
CCn1ncc(C(=O)c2cnc(-c3ccccc3)n(Cc3ccccc3)c2=O)c1OS(=O)(=O)c1ccc(C)cc1 [Compound 21, 5-[[1-ethyl-5-[[(4-methylphenyl)sulfonyl]oxy]-1H-pyrazol-4-yl]carbonyl]-2-phenyl-3-(phenylmethyl)-4(3H)-pyrimidinone]	0	10	0	20	0	0	0	0	30	70	0	0	0	0	0	0	
O=C(c1cnoc1C1CC1)c1cnc(-c2ccccc2)n(-c2ccccc2)c1=O [Compound 223, 5-[(5-cyclopropyl-4-isoxazolyl)-carbonyl]-2,3-diphenyl-4(3H)-pyrimidinone]			30				10				0				0		pest or weed control at 125 g/ha ([1]; post-emergence, Postemergence, 125 g ai/ha, 0 to 100 scale where 0 is no effect and 100 is complete control, read-out: Plant response rating, Crabgrass, Large): 0%; pest or weed control at 500 g/ha ([1]; post-emergence, Postemergence, 500 g ai/ha, visual injury, 0 to 100 scale (0 no effect, 100 complete control), approx. ten days, read-out: Crabgrass, Large plant response rating): 60%; pest or weed control at 500 g/ha ([1]; pre-emergence, Preemergence, 500 g ai/ha, 0 to 100 scale, 0 = no effect, 100 = complete control, read-out: Plant response rating, Crabgrass, Large): 80%; pest or weed control at 125 g/ha ([2]; post-emergence, Postemergence, 125 g ai/ha, 0 to 100 scale where 0 is no effect and 100 is complete control, read-out: Plant response rating, Morningglory): 60%; pest or weed control at 500 g/ha ([2]; post-emergence, Postemergence, 500 g ai/ha, visual injury, 0 to 100 scale (0 no effect, 100 complete control), approx. ten days, read-out: Morningglory plant response rating): 80%; pest or weed control at 125 g/ha ([3]; post-emergence, Postemergence, 125 g ai/ha, 0 to 100 scale where 0 is no effect and 100 is complete control, read-out: Plant response rating, Velvetleaf): 50%; pest or weed control at 500 g/ha ([3]; post-emergence, Postemergence, 500 g ai/ha, visual injury, 0 to 100 scale (0 no effect, 100 complete control), approx. ten days, read-out: Velvetleaf plant response rating): 80%; pest or weed control at 500 g/ha ([3]; pre-emergence, Preemergence, 500 g ai/ha, 0 to 100 scale, 0 = no effect, 100 = complete control, read-out: Plant response rating, Velvetleaf): 60%; plant injury at 125 g/ha ([4]; post-emergence, Postemergence, 125 g ai/ha, 0 to 100 scale where 0 is no effect and 100 is complete control, read-out: Plant response rating, Wheat): 0%; plant injury at 500 g/ha ([4]; post-emergence, Postemergence, 500 g ai/ha, visual injury, 0 to 100 scale (0 no effect, 100 complete control), approx. ten days, read-out: Wheat plant response rating): 0%; plant injury at 500 g/ha ([4]; pre-emergence, Preemergence, 500 g ai/ha, 0 to 100 scale, 0 = no effect, 100 = complete control, read-out: Plant response rating, Wheat): 0%
